{
  "source": "patent US20140323522A1",
  "about": "“Method of Treating Cancer” (Exelixis, Inc., priority 2011, published 2014)",
  "key": {"[1]": {"test_system": "castration-resistant prostate cancer (CRPC) with bone metastases", "experiment": "Phase 2 trial (NCT00940225) case studies of CRPC patients with bone metastases treated with compound 1", "assay_type": "in vivo, human", "description": "All patients provided informed consent before study screening."}, "[2]": {"experiment": "phase 1 clinical study, tolerability"}, "[3]": {"test_system": "Human CRPC ARCaPM cells", "experiment": "ARCaPM in vivo efficacy study (intratibial xenografts)", "parameters": "species or system nude mice", "protocol": "Micro-CT-based quantification (Scanco 40 instrument) of 5 tibiae per group with 2 measurements each were used. ([…]) indicates vehicle tibia lacking detectable tumor in the section evaluated by histology. […] Bioquant® Image Analysis software was used for the histomorphometry of H&E-stained sections. Tumor (8A) and bone area (8B) were measured in the evaluated sections by tracing their outline within an area of 1×1 mm^2 (total tissue area) near the center of the growth plate. Percentages relative to the total tissue area were calculated. […] Bioquant® Image Analysis software was used for the histomorphometry of consecutive H&E- and TRAP-stained sections. (9A) Based on TRAP stain, OC numbers were counted along the border of the trabecular bone within the same tissue area used to assess tumor and bone area (FIG. 8). The ratio of OCs per bone perimeter (OC/mm) was calculated. (9B) OBs were counted along the trabecular bone surface in the same area on the H&E-stained sections and the number of OBs per bone perimeter (0 B/mm) was calculated. ([…]) indicates vehicle-treated mice without detectable tumor in the corresponding tumor area analysis (FIG. 8A). (A) indicates compound 1-treated mice with detectable tumor in the corresponding tumor area analysis (FIG. 8A)."}, "[4]": {"test_system": "xenograft tumor models", "experiment": "xenograft tumor models", "conditions": "in vivo"}, "[5]": {"test_system": "mature OCs", "experiment": "in vitro osteoclast (OC) activity assay (bone resorption by mature OCs)", "assay_type": "cell-based, human", "conditions": "day 10"}, "[6]": {"test_system": "endothelial cells and tumor cells", "experiment": "apoptosis of endothelial cells and tumor cells"}, "[7]": {"experiment": "oral bioavailability", "conditions": "in vivo"}, "[8]": {"test_system": "CD34+ cells derived from human bone marrow", "experiment": "in vitro osteoclast (OC) differentiation assay", "assay_type": "cell-based", "conditions": "day 7"}, "[9]": {"test_system": "Mouse KS482 cells", "experiment": "in vitro osteoblast (OB) differentiation assay", "assay_type": "cell-based", "conditions": "day 8"}, "[10]": {"test_system": "Mouse KS482 cells", "experiment": "in vitro osteoblast (OB) bone-forming activity assay", "assay_type": "cell-based"}, "[11]": {"test_system": "pancreatic neuroendocrine tumor", "experiment": "murine pancreatic neuroendocrine tumor model", "conditions": "mouse, in vivo"}, "[12]": {"test_system": "proteins related to the VEGF pathway (VEGF, NRP-1, HIF1α)", "experiment": "IHC and single quantum-dot labeling of ARCaPM tumors in tibia sections, VEGF pathway proteins", "assay_type": "in vivo, nude mice", "conditions": "10 mg/kg or 30 mg/kg, 7 weeks, vs vehicle"}, "[13]": {"conditions": "10 mg/kg or 30 mg/kg, 7 weeks, compared to vehicle"}, "[14]": {"conditions": "10 mg/kg or 30 mg/kg, 7 weeks, relative to vehicle"}},
  "data": [
    {"smiles": "COc1cc2nccc(Oc3ccc(NC(=O)C4(C(=O)Nc5ccc(F)cc5)CC4)cc3)c2cc1OC", "note": "[Compound 1, N-(4-{[6,7-bis(methyloxy)quinolin-4-yl]oxy}phenyl)-N′-(4-fluorophenyl)cyclopropane-1,1-dicarboxamide]", "values": [
      {"measurement": "Hemoglobin (best response, change)", "setting": "[1]; Patient 1, 100 mg dose", "result": "+1.4 g/dL"},
      {"measurement": "Pain (best response)", "setting": "[1]; Patient 1, 100 mg dose", "result": "Improvement"},
      {"measurement": "Tumor response (best response)", "setting": "[1]; Patient 1, 100 mg dose", "result": "−41", "unit": "%"},
      {"measurement": "tALP (best response, change)", "setting": "[1]; Patient 1, 100 mg dose", "result": "−77", "unit": "%"},
      {"measurement": "increase in hemoglobin compared with baseline", "setting": "[1]; Patient 1, Week 2", "result": 1.4, "unit": "g/dL"},
      {"measurement": "CT scan response category", "setting": "[1]; Patient 1, Week 6", "result": "partial response (PR)"},
      {"measurement": "CT scan, decrease in measurable target lesions", "setting": "[1]; Patient 1, Week 6", "result": 33, "unit": "%"},
      {"measurement": "bone scan, radiotracer uptake by bone metastases", "setting": "[1]; Patient 1, Week 6", "result": "dramatic decrease in radiotracer uptake"},
      {"measurement": "bone lesions on bone scan", "setting": "[1]; Patient 1, Week 12", "result": "near complete resolution of bone lesions"},
      {"measurement": "decrease in target lesions", "setting": "[1]; Patient 1, Week 12, stable through Week 18", "result": 44, "unit": "%"},
      {"measurement": "adverse event leading to withdrawal", "setting": "[1]; Patient 1, Week 18", "result": "Grade 3 diarrhea"},
      {"measurement": "PSA level", "setting": "[1]; Patient 1, Week 18 (430 ng/mL at baseline)", "result": 93.5, "unit": "ng/mL"},
      {"measurement": "serum tALP level", "setting": "[1]; Patient 1, Week 18 (689 U/L at baseline)", "result": 159, "unit": "U/L"},
      {"measurement": "bone pain", "setting": "[1]; Patient 1, four weeks after start", "result": "significant reduction in bone pain"},
      {"measurement": "Bone scan (best response)", "setting": "[1]; Patient 2, 100 mg dose", "result": "Improvement"},
      {"measurement": "Hemoglobin (best response, change)", "setting": "[1]; Patient 2, 100 mg dose", "result": "+1.8 g/dL"},
      {"measurement": "Pain (best response)", "setting": "[1]; Patient 2, 100 mg dose", "result": "Pain-free"},
      {"measurement": "Tumor response (best response)", "setting": "[1]; Patient 2, 100 mg dose", "result": "−20", "unit": "%"},
      {"measurement": "tALP (best response, change)", "setting": "[1]; Patient 2, 100 mg dose", "result": "−6", "unit": "%"},
      {"measurement": "bone pain", "setting": "[1]; Patient 2, Week 4", "result": "reduction in bone pain"},
      {"measurement": "CT scan, decrease in target lesions", "setting": "[1]; Patient 2, Week 6", "result": 13, "unit": "%"},
      {"measurement": "bone scan, radiotracer uptake by bone lesions", "setting": "[1]; Patient 2, Week 6", "result": "slight flair in radiotracer uptake"},
      {"measurement": "bone scan, radiotracer uptake", "setting": "[1]; Patient 2, Week 12", "result": "substantial reduction of radiotracer uptake"},
      {"measurement": "decrease in measurable disease", "setting": "[1]; Patient 2, Week 12", "result": 20, "unit": "%"},
      {"measurement": "increase in hemoglobin compared with baseline", "setting": "[1]; Patient 2, Week 12", "result": 1.8, "unit": "g/dL"},
      {"measurement": "Hemoglobin (best response, change)", "setting": "[1]; Patient 3, 100 mg dose", "result": "+2.2 g/dL"},
      {"measurement": "PSA (best response, change)", "setting": "[1]; Patient 3, 100 mg dose", "result": "−57", "unit": "%"},
      {"measurement": "Pain (best response)", "setting": "[1]; Patient 3, 100 mg dose", "result": "Pain-free"},
      {"measurement": "Tumor response (best response)", "setting": "[1]; Patient 3, 100 mg dose", "result": "−51", "unit": "%"},
      {"measurement": "tALP (best response, change)", "setting": "[1]; Patient 3, 100 mg dose", "result": "−77", "unit": "%"},
      {"measurement": "increase in hemoglobin compared with baseline", "setting": "[1]; Patient 3, Week 2", "result": 2.2, "unit": "g/dL"},
      {"measurement": "CT scan, decrease in measurable target lesions", "setting": "[1]; Patient 3, Week 6", "result": 43, "unit": "%"},
      {"measurement": "bone scan, radiotracer uptake", "setting": "[1]; Patient 3, Week 6", "result": "dramatic reduction in radiotracer uptake"},
      {"measurement": "bone lesions on bone scan", "setting": "[1]; Patient 3, Week 12", "result": "complete resolution of bone lesions"},
      {"measurement": "decrease in measurable disease", "setting": "[1]; Patient 3, Week 12", "result": 51, "unit": "%"},
      {"measurement": "PSA level", "setting": "[1]; Patient 3, Week 18 (2.4 ng/mL at screening)", "result": 1.2, "unit": "ng/mL"},
      {"measurement": "serum tALP level", "setting": "[1]; Patient 3, Week 18 (869 U/L at baseline)", "result": 197, "unit": "U/L"},
      {"measurement": "pain", "setting": "[1]; Patient 3, after three weeks", "result": "complete resolution of pain"},
      {"measurement": "most commonly observed adverse events", "setting": "[2]", "result": "fatigue, diarrhea, anorexia, rash, and palmar-plantar erythrodysesthesia"},
      {"measurement": "tolerability", "setting": "[2]", "result": "generally well-tolerated"},
      {"measurement": "osteoblasts (OBs) along the trabecular bone, tibia sections", "setting": "[3]; [13]", "result": "increased OBs"},
      {"measurement": "osteoclasts (OCs) along the trabecular bone, tibia sections", "setting": "[3]; [13]", "result": "no change in OCs"},
      {"measurement": "bone mineral density, micro-CT", "setting": "[3]; [14]", "result": "preserves"},
      {"measurement": "bone volume/tissue volume (BV/TV), micro-CT", "setting": "[3]; [14]", "result": "preserves"},
      {"measurement": "progression of CRPC ARCaPM tumor xenografts in bone (X-ray, micro-CT of tibiae)", "setting": "[3]; 30 mg/kg, 7 weeks of treatment, vs vehicle", "result": "blocks progression"},
      {"measurement": "progression of CRPC ARCaPM tumor xenografts in bone (H&E stain of tibia sections)", "setting": "[3]; 7 weeks of treatment, vs vehicle", "result": "blocks progression"},
      {"measurement": "tumor growth in xenograft tumor models", "setting": "[4]", "result": "causes tumor regression"},
      {"measurement": "ability of mature OCs to resorb bone (secreted CTX normalized to TRACP 5b)", "setting": "[5]", "result": "does not affect"},
      {"measurement": "apoptosis of endothelial cells and tumor cells", "setting": "[6]", "result": "rapidly induces apoptosis"},
      {"measurement": "oral bioavailability", "setting": "[7]", "result": "orally bioavailable"},
      {"measurement": "OC differentiation (secreted TRACP 5b levels)", "setting": "[8]", "result": "inhibits in vitro osteoclast (OC) differentiation in a dose-dependent manner"},
      {"measurement": "OB differentiation (cellular ALP activity)", "setting": "[9]", "result": "biphasic effects"},
      {"measurement": "OB bone forming activity (organic and inorganic bone matrix)", "setting": "[10]", "result": "biphasic effects"},
      {"measurement": "overall survival", "setting": "[11]", "result": "substantially improves"},
      {"measurement": "tumor invasiveness and metastasis", "setting": "[11]", "result": "significantly reduces"},
      {"measurement": "IHC staining of proteins related to the VEGF pathway (VEGF, NRP-1, HIF1α) in ARCaPM tumors", "setting": "[12]", "result": "decreased IHC staining"}
    ]}
  ]
}
